# According to PubChem BioAssay AID1963972 (Molecular Pharmacology Branch, DTP, NCI, 2024):
# Test system: 945468-187-T-J2-PDC spheroids viability
# Assay: Anticancer human tumor 945468-187-T-J2-PDC patient-derived rectal carcinoma cell line growth inhibition [PI3K]
# Details: spheroids with HUVEC and MSC; for IC50: curve of first compound; for viability, T/C: stronger effect = lower value
# From the text: Combinatorial screen of targeted agents with the PI3K inhibitors inavolisib, alpelisib, duvelisib, and copanlisib in multi-cell type tumor spheroids
# A high-throughput screen of multi-cell type tumor spheroids was designed to identify active combinations of targeted small molecules and PI3K pathway inhibitors. Complex spheroids include a stromal component modeled by human endothelial cells (HUVEC) and fibroblasts modeled by human mesenchymal stem cells (MSCs). The concentration ranges selected for each drug and investigational agent were based upon clinically achievable concentrations if the clinical Cmax of the agent was known.
# Compounds. The drugs and investigational agents: inavolisib (NSC800729), alpelisib (NSC765974), duvelisib (NSC772469), copanlisib (NSC816437), ipatasertib (NSC767898), afuresertib (NSC778305), talazoparib (NSC767125), sapanisertib (NSC764658), selumetinib (NSC741078), tovorafenib (DAY101, NSC766906), vemurafenib (NSC761431), ravoxertinib (NSC781343), sotorasib (NSC818433), MRTX1133 (NSC 836407), abemaciclib (NSC 768073), palbociclib (NSC758247), venetoclax (NSC 766270), SY5609 (NSC837396), enzalutamide (NSC755605), and darolutamide (NSC825331), were obtained from the National Cancer Institute (NCI) Developmental Therapeutics Program Chemical Repository. The FDA-approved anticancer drug set is available from the NCI Developmental Therapeutics Program. […] The stock solutions were prepared in dimethyl sulfoxide (DMSO, Sigma-Aldrich, St. Louis, MO, cat. D2650) at 800-fold the tested concentration and stored at -70 degrees C prior to their use. All drugs and investigational agents were tested over a range starting from a high concentration at or near the clinical Cmax and decreasing in half-log increments. If the clinical Cmax for an agent had not been determined, the highest concentration tested was 10 microM.
# Cell Culture. All cells were maintained in an incubator at 37 degrees C and 5% CO2 with 95% humidity. The PDC lines were cultured according to standard operating procedures established by the NCI PDMR (https://pdmr.cancer.gov/sops/default.htm). All PDCs were thawed and cultured in Matrigel-coated flasks prepared with a working solution of 1X Ham's F-12 nutrient mix, without supplementation (Invitrogen, Waltham, MA, cat. 11765054), 100 U/mL penicillin-streptomycin (Invitrogen, cat. 15140122), and 2.5% Matrigel (Corning Inc., Corning, NY, cat. 354248) for the first three passages. The 354836-022-R-J1-PDC, 475296-252-R-J1-PDC, and 997726-040-R-J2-PDC lines were cultured in 6A media, which includes advanced DMEM/F-12 (Thermo Fisher Scientific, cat. 12634028), 10 mM HEPES (Thermo Fisher Scientific, cat. 15630080), 1X GlutaMAX supplement (Thermo Fisher Scientific, cat. 35050061), 0.1 mg/mL primocin (InvivoGen, San Diego, CA, cat. ant-pm-2), 10% defined fetal bovine serum, heat inactivated (HyClone Laboratories Inc., Logan, UT, cat. SH30070.03HI), 50% L-WRN conditioned media (ATCC, cat. CRL-3276), 1.25 mM N-Acetyl-L-cysteine (Sigma-Aldrich, cat. A9165), 10 mM nicotinamide (Sigma-Aldrich, cat. N0636), 1X B-27 supplement (Thermo Fisher Scientific, cat. 17504044), 1X N-2 supplement (Thermo Fisher Scientific, cat. 17502048), and 10 microM Y-27632 dihydrochloride (Tocris Bioscience, Bristol, United Kingdom, cat. 1254). The 624824-186-R-J2-PDC line was cultured in 6C/Colon 1B media, which includes all 6A media components plus 50 ng/mL human EGF recombinant protein (Thermo Fisher Scientific, cat. PHG0311). […]
# [1] = second compound 0.0316 µM, first compound 0.0316 µM
# [2] = second compound 0.0316 µM, first compound 0.1 µM
# [3] = second compound 0.0316 µM, first compound 0.316 µM
# [4] = second compound 0.0316 µM, first compound 1 µM
# [5] = second compound 0.0316 µM, first compound 3.16 µM
# [6] = second compound 0.0316 µM, first compound 10 µM
# [7] = second compound 0.1 µM, first compound 0.0316 µM
# [8] = second compound 0.1 µM, first compound 0.1 µM
# [9] = second compound 0.1 µM, first compound 0.316 µM
# [10] = second compound 0.1 µM, first compound 1 µM
# [11] = second compound 0.1 µM, first compound 3.16 µM
# [12] = second compound 0.1 µM, first compound 10 µM
# [13] = second compound 0.316 µM, first compound 0.0316 µM
# [14] = second compound 0.316 µM, first compound 0.1 µM
# [15] = second compound 0.316 µM, first compound 0.316 µM
# [16] = second compound 0.316 µM, first compound 1 µM
# [17] = second compound 0.316 µM, first compound 3.16 µM
# [18] = second compound 0.316 µM, first compound 10 µM
# [19] = second compound 1 µM, first compound 0.0316 µM
# [20] = second compound 1 µM, first compound 0.1 µM
# [21] = second compound 1 µM, first compound 0.316 µM
# [22] = second compound 1 µM, first compound 1 µM
# [23] = second compound 1 µM, first compound 3.16 µM
# [24] = second compound 1 µM, first compound 10 µM
# 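Further: spheroids exposed to compounds for seven days before reading.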
structure (smiles),measurement,setting,value
Cn1nccc1Nc1nccc(-c2ccn(C(CO)c3ccc(Cl)c(F)c3)c(=O)c2)n1 (centres undefined) + CC(Nc1ncnc2nc[nH]c12)c1cc2cccc(Cl)c2c(=O)n1-c1ccccc1,IC50,second compound 0.0316 µM,> 10000 nM
same,IC50,second compound 0.1 µM,> 10000 nM
same,IC50,second compound 0.316 µM,> 10000 nM
same,IC50,second compound 1 µM,> 10000 nM
same,IC50,second compound 3.16 µM,> 10000 nM
same,IC50,second compound 10 µM,> 10000 nM
same,"viability, T/C",[1],107%
same,"viability, T/C",[2],91.4%
same,"viability, T/C",[3],92%
same,"viability, T/C",[4],115%
same,"viability, T/C",[5],101%
same,"viability, T/C",[6],78.5%
same,"viability, T/C",[7],76.1%
same,"viability, T/C",[8],86.5%
same,"viability, T/C",[9],102%
same,"viability, T/C",[10],120%
same,"viability, T/C",[11],101%
same,"viability, T/C",[12],72.7%
same,"viability, T/C",[13],95.2%
same,"viability, T/C",[14],85.6%
same,"viability, T/C",[15],83.1%
same,"viability, T/C",[16],98.7%
same,"viability, T/C",[17],84.2%
same,"viability, T/C",[18],71.1%
same,"viability, T/C",[19],99.3%
same,"viability, T/C",[20],100%
same,"viability, T/C",[21],89.4%
same,"viability, T/C",[22],103%
same,"viability, T/C",[23],96.2%
same,"viability, T/C",[24],75.7%
same,"viability, T/C","second compound 3.16 µM, first compound 0.0316 µM",88.2%
same,"viability, T/C","second compound 3.16 µM, first compound 0.1 µM",80.8%
same,"viability, T/C","second compound 3.16 µM, first compound 0.316 µM",83.6%
same,"viability, T/C","second compound 3.16 µM, first compound 1 µM",125%
same,"viability, T/C","second compound 3.16 µM, first compound 3.16 µM",140%
same,"viability, T/C","second compound 3.16 µM, first compound 10 µM",68.4%
same,"viability, T/C","second compound 10 µM, first compound 0.0316 µM",135%
same,"viability, T/C","second compound 10 µM, first compound 0.1 µM",115%
same,"viability, T/C","second compound 10 µM, first compound 0.316 µM",109%
same,"viability, T/C","second compound 10 µM, first compound 1 µM",110%
same,"viability, T/C","second compound 10 µM, first compound 3.16 µM",91.9%
same,"viability, T/C","second compound 10 µM, first compound 10 µM",70.5%
CC1(C)CCC(Nc2ncc(C(F)(F)F)c(-c3c[nH]c4c(P(C)(C)=O)c(C#N)ccc34)n2)CN1 (centres undefined) + CC(Nc1ccc2c(c1)OCCn1cc(N3C(=O)OCC3C(F)F)nc1-2)C(N)=O,IC50,second compound 0.00316 µM,798 nM
same,IC50,second compound 0.01 µM,1310 nM
same,IC50,second compound 0.0316 µM,2110 nM
same,IC50,second compound 0.1 µM,1060 nM
same,IC50,second compound 0.316 µM,896 nM
same,IC50,second compound 1 µM,4240 nM
same,"viability, T/C","second compound 0.00316 µM, first compound 0.0316 µM",96%
same,"viability, T/C","second compound 0.00316 µM, first compound 0.1 µM",115%
same,"viability, T/C","second compound 0.00316 µM, first compound 0.316 µM",71.8%
same,"viability, T/C","second compound 0.00316 µM, first compound 1 µM",50.2%
same,"viability, T/C","second compound 0.00316 µM, first compound 3.16 µM",34.2%
same,"viability, T/C","second compound 0.00316 µM, first compound 10 µM",49.6%
same,"viability, T/C","second compound 0.01 µM, first compound 0.0316 µM",91.6%
same,"viability, T/C","second compound 0.01 µM, first compound 0.1 µM",92.7%
same,"viability, T/C","second compound 0.01 µM, first compound 0.316 µM",88.8%
same,"viability, T/C","second compound 0.01 µM, first compound 1 µM",52.5%
same,"viability, T/C","second compound 0.01 µM, first compound 3.16 µM",40.5%
same,"viability, T/C","second compound 0.01 µM, first compound 10 µM",42.7%
same,"viability, T/C",[1],82.2%
same,"viability, T/C",[2],98.3%
same,"viability, T/C",[3],61.1%
same,"viability, T/C",[4],64.3%
same,"viability, T/C",[5],42.9%
same,"viability, T/C",[6],43.8%
same,"viability, T/C",[7],105%
same,"viability, T/C",[8],91%
same,"viability, T/C",[9],81%
same,"viability, T/C",[10],48.5%
same,"viability, T/C",[11],41.8%
same,"viability, T/C",[12],51.4%
same,"viability, T/C",[13],77.5%
same,"viability, T/C",[14],103%
same,"viability, T/C",[15],89.3%
same,"viability, T/C",[16],45.8%
same,"viability, T/C",[17],39.8%
same,"viability, T/C",[18],31.6%
same,"viability, T/C",[19],85.3%
same,"viability, T/C",[20],76.3%
same,"viability, T/C",[21],67.3%
same,"viability, T/C",[22],65.7%
same,"viability, T/C",[23],54.6%
same,"viability, T/C",[24],40.1%
